Laboratory results taken from ChEMBL document CHEMBL5661980, “Discovery of OSI-906: a selective and orally efficacious dual inhibitor of the IGF-1 receptor and insulin receptor” (Future Med Chem, 2009).

Columns and labels:
[1] = target: Cytochrome P450 3A4 (Homo sapiens, UniProt P08684); assay: Inhibition of CYP3A4 (unknown origin) using luciferin as substrate in presence of NADPH generating system incubated for 20 mins by luminescent method; assay type: ADME
[2] = target: Cytochrome P450 2D6 (Homo sapiens, UniProt P10635); assay: Inhibition of CYP2D6 (unknown origin) in presence of NADPH generating system incubated for 20 mins by luminescent method; assay type: ADME
[3] = target: T1, Cytochrome P450 1A2 (Homo sapiens, UniProt P05177); assay: Inhibition of CYP1A2 (unknown origin) in presence of NADPH generating system incubated for 20 mins by luminescent method; assay type: ADME
T1 sequence (P05177 whole entry): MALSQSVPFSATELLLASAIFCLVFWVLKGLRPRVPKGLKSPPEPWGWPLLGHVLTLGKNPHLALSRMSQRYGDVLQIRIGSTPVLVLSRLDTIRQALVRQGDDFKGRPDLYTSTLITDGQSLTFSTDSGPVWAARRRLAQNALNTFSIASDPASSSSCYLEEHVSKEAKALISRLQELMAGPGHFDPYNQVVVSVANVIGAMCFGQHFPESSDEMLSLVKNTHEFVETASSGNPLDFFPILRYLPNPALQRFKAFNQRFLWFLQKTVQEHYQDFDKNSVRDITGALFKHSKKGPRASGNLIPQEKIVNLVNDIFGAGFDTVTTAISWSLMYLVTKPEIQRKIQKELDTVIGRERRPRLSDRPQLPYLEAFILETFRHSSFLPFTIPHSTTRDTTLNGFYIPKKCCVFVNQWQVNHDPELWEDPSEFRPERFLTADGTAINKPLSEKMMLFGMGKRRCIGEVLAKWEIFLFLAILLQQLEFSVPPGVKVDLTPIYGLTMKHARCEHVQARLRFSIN

[4] = Clearance in CD-1 mouse measured at 5 mg/kg, iv for 1 to 24 hrs by HPLC-MS/MS analysis; assay type: ADME, organism-based; conditions: in vivo, time 1-24 hrs
[5] = AUC (0 to infinity) in CD-1 mouse measured at 5 mg/kg, iv for 1 to 24 hrs by HPLC-MS/MS analysis; assay type: ADME, organism-based; conditions: in vivo, time 1-24 hrs
[6] = Clearance in Sprague-Dawley rat measured at 5 mg/kg, iv for 1 to 24 hrs by HPLC-MS/MS analysis; assay type: ADME, organism-based; conditions: in vivo, time 1-24 hrs
[7] = AUC (0 to infinity) in Sprague-Dawley rat measured at 5 mg/kg, iv for 1 to 24 hrs by HPLC-MS/MS analysis; assay type: ADME, organism-based; conditions: in vivo, time 1-24 hrs
[8] = Elimination half life in Sprague-Dawley rat measured at 5 mg/kg, iv for 1 to 24 hrs by HPLC-MS/MS analysis; assay type: ADME, organism-based; conditions: in vivo, time 1-24 hrs, read-out: beta t1/2 (converted)
[9] = Volume of distribution at steady state in Beagle dog measured at 2.5 mg/kg, iv for 1 to 24 hrs by HPLC-MS/MS analysis; assay type: ADME, organism-based, Canis lupus familiaris; conditions: in vivo, time 1-24 hrs, read-out: Vdss
[10] = Elimination half life in Beagle dog measured at 2.5 mg/kg, iv for 1 to 24 hrs by HPLC-MS/MS analysis; assay type: ADME, organism-based, Canis lupus familiaris; conditions: in vivo, time 1-24 hrs, read-out: beta t1/2 (converted)
[11] = AUC last in CD-1 mouse measured at 5 mg/kg, po for 1 to 24 hrs by HPLC-MS/MS analysis; assay type: ADME, organism-based; conditions: in vivo, time 1-24 hrs
[12] = Oral bioavailability in CD-1 mouse measured at 5 mg/kg for 1 to 24 hrs by HPLC-MS/MS analysis; assay type: ADME, organism-based; conditions: in vivo, time 1-24 hrs
[13] = Cmax in CD-1 mouse measured at 25 mg/kg, po for 1 to 24 hrs by HPLC-MS/MS analysis; assay type: ADME, organism-based; conditions: in vivo, time 1-24 hrs
[14] = AUC last in CD-1 mouse measured at 25 mg/kg, po for 1 to 24 hrs by HPLC-MS/MS analysis; assay type: ADME, organism-based; conditions: in vivo, time 1-24 hrs
[15] = Oral bioavailability in CD-1 mouse measured at 25 mg/kg for 1 to 24 hrs by HPLC-MS/MS analysis; assay type: ADME, organism-based; conditions: in vivo, time 1-24 hrs
[16] = AUC last in CD-1 mouse measured at 75 mg/kg, po for 1 to 24 hrs by HPLC-MS/MS analysis; assay type: ADME, organism-based; conditions: in vivo, time 1-24 hrs
[17] = Oral bioavailability in CD-1 mouse measured at 75 mg/kg for 1 to 24 hrs by HPLC-MS/MS analysis; assay type: ADME, organism-based; conditions: in vivo, time 1-24 hrs
[18] = Cmax in CD-1 mouse measured at 250 mg/kg, po for 1 to 24 hrs by HPLC-MS/MS analysis; assay type: ADME, organism-based; conditions: in vivo, time 1-24 hrs
[19] = AUC last in Sprague-Dawley rat measured at 12.5 mg/kg, po for 1 to 24 hrs by HPLC-MS/MS analysis; assay type: ADME, organism-based; conditions: in vivo, time 1-24 hrs
[20] = Oral bioavailability in Sprague-Dawley rat measured at 12.5 mg/kg for 1 to 24 hrs by HPLC-MS/MS analysis; assay type: ADME, organism-based; conditions: in vivo, time 1-24 hrs
[21] = Cmax in Sprague-Dawley rat measured at 100 mg/kg, po for 1 to 24 hrs by HPLC-MS/MS analysis; assay type: ADME, organism-based; conditions: in vivo, time 1-24 hrs
[22] = Oral bioavailability in Sprague-Dawley rat measured at 100 mg/kg for 1 to 24 hrs by HPLC-MS/MS analysis; assay type: ADME, organism-based; conditions: in vivo, time 1-24 hrs
[23] = Cmax in Beagle dog measured at 5 mg/kg, po for 1 to 24 hrs by HPLC-MS/MS analysis; assay type: ADME, organism-based, Canis lupus familiaris; conditions: in vivo, time 1-24 hrs
[24] = AUC last in Beagle dog measured at 5 mg/kg, po for 1 to 24 hrs by HPLC-MS/MS analysis; assay type: ADME, organism-based, Canis lupus familiaris; conditions: in vivo, time 1-24 hrs
[25] = In vivo inhibition of IGF-1R phosphorylation in athymic nu/nu CD-1 mouse allografted with mouse 3T3 cells expressing human IGF-1R at 75 mg/kg, po measured after 4 to 24 hrs relative to control; assay type: functional; conditions: nu/nu CD-1, NIH3T3, time 4-24 hrs
[26] = Plasma concentration in athymic nu/nu CD-1 mouse allografted with mouse 3T3 cells expressing human IGF-1R at 75 mg/kg, po measured after 24 hrs; assay type: ADME, organism-based, NIH3T3
[27] = tested on: NIH3T3; assay: Antitumor activity against mouse 3T3 cells allografted in athymic nu/nu CD-1 mouse assessed as tumor regression at 75 mg/kg, po for 12 days relative to control; assay type: functional; conditions: time 12 day
[28] = tested on: NIH3T3; assay: Antitumor activity against mouse 3T3 cells allografted in athymic nu/nu CD-1 mouse assessed as tumor regression at 25 mg/kg, po for 12 days relative to control; assay type: functional; conditions: time 12 day
[29] = tested on: NIH3T3; assay: Antitumor activity against mouse 3T3 cells allografted in athymic nu/nu CD-1 mouse assessed as tumor growth inhibition at 25 mg/kg, po for 12 days relative to control; assay type: functional; conditions: NIH3T3, 288 h, time 12 day, read-out: TGI
[30] = Toxicity in athymic nu/nu CD-1 mouse allografted with mouse 3T3 cells expressing human IGF-1R assessed as loss in body weight at 25 mg/kg, po for 12 days relative to control; assay type: organism-based, NIH3T3; conditions: in vivo, 288 h, time 12 day
[31] = Toxicity in athymic nu/nu CD-1 mouse allografted with mouse 3T3 cells expressing human IGF-1R assessed as loss in body weight at 75 mg/kg, po for 12 days relative to control; assay type: organism-based, NIH3T3; conditions: in vivo, 288 h, time 12 day
[32] = Plasma concentration in CD-1 mouse measured at 25 mg/kg, po for 24 hrs by HPLC-MS/MS analysis; assay type: ADME, organism-based
[33] = Plasma concentration in CD-1 mouse measured at 75 mg/kg, po for 24 hrs by HPLC-MS/MS analysis; assay type: ADME, organism-based

Chain of Cytochrome P450 3A4 (P08684 whole entry): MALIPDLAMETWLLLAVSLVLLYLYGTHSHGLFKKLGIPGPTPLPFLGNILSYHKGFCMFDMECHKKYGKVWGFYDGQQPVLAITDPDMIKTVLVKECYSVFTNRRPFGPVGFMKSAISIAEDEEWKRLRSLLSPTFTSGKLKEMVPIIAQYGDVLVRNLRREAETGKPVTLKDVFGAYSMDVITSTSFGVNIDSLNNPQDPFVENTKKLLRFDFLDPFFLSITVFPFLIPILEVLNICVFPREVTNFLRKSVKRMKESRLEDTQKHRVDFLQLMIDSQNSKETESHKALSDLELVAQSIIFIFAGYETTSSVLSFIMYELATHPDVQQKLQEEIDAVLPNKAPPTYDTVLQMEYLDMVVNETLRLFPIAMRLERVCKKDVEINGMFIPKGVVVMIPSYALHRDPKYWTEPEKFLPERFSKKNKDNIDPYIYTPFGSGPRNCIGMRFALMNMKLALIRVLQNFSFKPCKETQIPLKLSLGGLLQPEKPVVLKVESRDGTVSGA
Chain of Cytochrome P450 2D6 (P10635 whole entry): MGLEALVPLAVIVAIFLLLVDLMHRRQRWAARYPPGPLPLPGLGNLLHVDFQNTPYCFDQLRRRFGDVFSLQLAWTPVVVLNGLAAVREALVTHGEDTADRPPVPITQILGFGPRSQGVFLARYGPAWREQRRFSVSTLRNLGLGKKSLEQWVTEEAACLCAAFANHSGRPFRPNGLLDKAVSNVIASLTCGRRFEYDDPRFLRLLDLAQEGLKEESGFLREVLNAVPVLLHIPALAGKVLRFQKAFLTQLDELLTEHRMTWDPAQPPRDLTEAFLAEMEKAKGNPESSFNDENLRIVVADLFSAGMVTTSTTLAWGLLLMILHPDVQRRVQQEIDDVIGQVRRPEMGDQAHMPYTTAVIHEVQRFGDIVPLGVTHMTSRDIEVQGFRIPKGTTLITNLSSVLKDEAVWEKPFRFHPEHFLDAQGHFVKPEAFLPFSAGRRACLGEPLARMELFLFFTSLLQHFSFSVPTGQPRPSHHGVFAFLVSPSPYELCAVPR

Work on `C[C@]1(O)C[C@@H](c2nc(-c3ccc4ccc(-c5ccccc5)nc4c3)c3c(N)nccn32)C1` [LINSITINIB] yielded an IC50 [1] greater than 10 µM, an IC50 [2] greater than 10 µM and an IC50 [3] greater than 10 µM. For the same compound, the clearance [4] was 12 mL/min/kg, the AUC(0-inf) [5] was 6950 ng·h/mL and the clearance [6] was 4 mL/min/kg. The AUC(0-inf) [7] was 23100 ng·h/mL, the half-life [8] was 2.64 h and the Vd [9] was 4.3 L/kg. The half-life [10] was 1.18 h, the AUC(0-t) [11] was 6770 ng·h/mL and the bioavailability [12] was 98%. The Cmax [13] was 16 µM, the AUC(0-t) [14] was 26700 ng·h/mL and the bioavailability [15] was 100%. The AUC(0-t) [16] was 87500 ng·h/mL, the bioavailability [17] was 84% and the Cmax [18] was 42 µM. For the same compound, the AUC(0-t) [19] was 42800 ng·h/mL, the bioavailability [20] was 74% and the Cmax [21] was 34.6 µM. The bioavailability [22] was 92%, the Cmax [23] was 1.2 µM and the AUC(0-t) [24] was 1330 ng·h/mL. It also gave an inhibition in vivo at 75 mg/kg [25] of 80%, a concentration at 24 h [26] of 4.77 µM and an Activity [27] of 55%. It also gave an Activity [28] of 0%, an inhibition in vivo at 25 mg/kg [29] of 60% and an Activity [30] of less than 10%. For the same compound, the Activity [31] was 16%, the concentration at 24 h [32] was 0.02 µM and the concentration at 24 h [33] was 2.92 µM.
